Holding throughout (experiment): growth of human tumour cells (NCI), 48 h
Assay [1] deals with HCT-15 colon.
Assay [2] has as its system OVCAR-8 ovarian.
Assay [3] concerns MALME-3M melanoma.
Assay [4] concerns CCRF-CEM leukemia.
In assay [5] the test system is UO-31 renal.

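Where inhibition never reached the appropriate level, the endpoint shown equals the highest concentration tested. Otherwise, values were interpolated linearly from a five-concentration, 48-hour dose response in 96-well plates. At the GI50, growth is halved. TGI marks complete inhibition of growth.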 Some results are limits rather than exact numbers.

Regarding `COC(=O)C(=O)C(C(C)=O)C(=O)NCc1ccc(OC)c(OC)c1` (centres undefined), the TGI in assay [1], in assay [2], in assay [3], in assay [4] and in assay [5] was greater than 100 µM in each case.
As for `O=C(CC(=O)C1CCOC1=O)C(=O)Nc1cccc(Cl)c1` (centres undefined), the TGI in assay [1], in assay [2], in assay [3] and in assay [5] was greater than 100 µM each time.
Regarding `Cc1ccccc1C1=[N+]([O-])c2ccc(Cl)cc2C1=O`, the TGI turned out to be 31.9 µM in assay [1]; 19.3 µM in assay [2]; 30.6 µM in assay [3]; 12.5 µM in assay [4]; 31.2 µM in assay [5].
With `CCC1CN2CCc3cc(OC)c(OC)cc3C2CC1CC1c2cc(OC)c(OC)cc2CCN1C(=O)C1CCCN1` (centres undefined), the TGI was greater than 100 µM in assay [1]; greater than 100 µM in assay [2]; 37.3 µM in assay [3]; 64.8 µM in assay [4]; 47.4 µM in assay [5].
Turning to `CCOC(=O)NC(=O)c1cn(C(CC)COC(=O)NCCCCCCNC(=O)OCC(CC)n2cc(C(=O)NC(=O)OCC)c(=O)[nH]c2=O)c(=O)[nH]c1=O` (centres undefined), the TGI in assay [1], in assay [2], in assay [3], in assay [4] and in assay [5] was greater than 100 µM throughout.
As for `COC(=O)/C(=N/O)C(C(=O)C=C(C)C)C(=O)C(=O)Nc1nc2ccc([N+](=O)[O-])cc2s1` (centres undefined), the TGI in assay [1] was greater than 100 µM; in assay [2] it was greater than 100 µM; in assay [3], greater than 100 µM; in assay [4], 74.7 µM; in assay [5], 92.8 µM.
As to `Cn1c(=O)nc2n(-c3cc(C(F)(F)F)cc(C(F)(F)F)c3)c3ccccc3nc-2c1=O`, the TGI in assay [1], in assay [2], in assay [3] and in assay [5] was greater than 100 µM each time.
Take `CC(C(=O)c1ccc(Cl)cc1)/C(=N/NC(=O)NN)C(=O)Nc1cccc(C(F)(F)F)c1` (centres undefined): the TGI in assay [1], in assay [2], in assay [3], in assay [4] and in assay [5] was greater than 100 µM in each case.
As for `O=C(N/C(=C\c1ccc([N+](=O)[O-])cc1)c1nc2ccccc2[nH]1)c1ccccc1`, the TGI in assay [1], in assay [2], in assay [3] and in assay [5] was greater than 100 µM each time.
As to `CC(=O)N1CCN(c2ccc(OCC3COC(Cn4ccnc4)(c4ccc(Cl)cc4Cl)O3)cc2)CC1` (centres undefined), the TGI was greater than 100 µM in assay [1]; greater than 100 µM in assay [2]; greater than 100 µM in assay [3]; greater than 100 µM in assay [4]; 91.9 µM in assay [5].
Take `CC(C)CCC[C@@H](C)C1CCC2[C@@H]3CC=C4C[C@@H](C(=O)NCCN(C)C)CC[C@]4(C)C3CC[C@@]21C` (some centres undefined): the TGI in assay [1] is 53.7 µM; in assay [2], greater than 100 µM; in assay [3] it was greater than 100 µM; in assay [4], 73.1 µM; in assay [5], 55.1 µM.
Consider `Cc1ccc(C)c(N2C/C(=N\NC(=O)CC#N)C(c3nc4ccccc4s3)C(=O)C2=O)c1` (centres undefined), for which the TGI in assay [1], in assay [2], in assay [3], in assay [4] and in assay [5] was greater than 100 µM throughout.
In the case of `COc1c(C)n(CCO)ccc1=O`, the TGI in assay [1], in assay [2], in assay [3], in assay [4] and in assay [5] was greater than 100 µM in each case.
Take `COc1cccc(/C=N/[N-]C(=O)c2ccncc2)c1[O-].COc1cccc(/C=N/[N-]C(=O)c2ccncc2)c1[O-].[O]=[U](=[O])([OH2+])[OH2+]`: the GI50 in assay [1] is 4.77 µM; in assay [2] it was 5.11 µM; in assay [3], 12.8 µM; in assay [4], 2.06 µM; in assay [5], 3.45 µM. Further, the TGI in assay [1] was greater than 100 µM; in assay [2], greater than 100 µM; in assay [3], greater than 66.3 µM; in assay [4] it was greater than 30.7 µM; in assay [5] it was 20 µM.
For `CC(C)(C)c1ccc2c(c1)S(=O)(=O)Nc1ccc(Cl)cc1NS(=O)(=O)c1cc(C(C)(C)C)ccc1OCCOCCOCCO2`, the TGI was greater than 100 µM in assay [1]; greater than 100 µM in assay [2]; 80 µM in assay [3]; greater than 100 µM in assay [4]; greater than 100 µM in assay [5].
In the case of `CCOC(=O)NC(=O)c1cn(C2CCCCC2)c(=O)[nH]c1=O`, the TGI in assay [1], in assay [2], in assay [3], in assay [4] and in assay [5] was greater than 100 µM throughout.
As for `CC1=C(C#N)C(=O)CC(c2ccc(Cl)cc2)N(C)N1` (centres undefined), the TGI in assay [1] and in assay [3] was greater than 100 µM throughout.
